In brackets after ≈: the same amount, converted by molar mass. Like-named read-outs stand apart in the source and are kept apart here.
What was measured:
[1] = tested on: Mtb. Praha 1; assay: microbe, parasite or virus in culture; assay type: cell-based; conditions: Mycobacterium tuberculosis, read-out: MIC Mtb. Praha 1
[2] = tested on: HepG2 cells; assay: Cytotoxicity evaluation (CellTiter 96 MTS); assay type: cell-based, human; conditions: Homo sapiens, HepG2, 24 h, read-out: IC50 HepG2
Procedure: Seven esters and their parent salicylanilides with the most robust antimicrobial activity were tested for cytotoxicity in the human hepatocellular liver carcinoma cell line HepG2 (passages 21–24; ECACC, Salisbury, UK) using a standard colorimetric method measuring a tetrazolium salt reduction (CellTiter(R) 96 AQueous One Solution Assay, Promega G3580, Madison, WI, USA).
The cells were routinely cultured in Minimum Essentials Eagle Medium (Sigma-Aldrich, Darmstadt, Germany) supplemented with 10% foetal bovine serum (PAA; Biotech, Prague, Czech Republic), 1% of L-glutamine solution (Sigma-Aldrich), and non-essential amino acids solution (Sigma-Aldrich) in a humidified atmosphere containing 5% CO2 at 37 °C. For subculturing, the cells were harvested after trypsin/EDTA (Sigma-Aldrich) treatment at 37 °C. The cells treated with the tested substances were used as experimental groups. Untreated HepG2 cells were used as control groups.
The cells were seeded in density 1 × 10^4 cells per well in a 96-well plate with microscopic control. Next day, the cells were treated with each of the tested substances. […] The most of the tested compounds were prepared in incubation concentrations of 0.01–20 µM in triplicates. 4-(Trifluoromethyl)benzoic acid was applied in the concentrations of 10–4,000 µM in triplicates. The following types of controls were included: determination of 100% viability and 0% viability (the cells treated by 10% DMSO), no cell control and vehiculum controls. These checking samples were prepared in triplicates.
The treated cells were incubated together with controls at 37 °C for 24 h in 5% CO2 atmosphere. After this time reagent from the kit CellTiter 96 AQueous One Solution Cell Proliferation Assay was added. The CellTiter 96 assay is based on the reduction of tetrazolium salt MTS [3-(4,5-dimethylthiazol-2-yl)-5-(3-carboxymethoxyphenyl)-2-(4-sulfophenyl)-2H-tetrazolium] to water-soluble formazan dye by metabolically active cells. The reduction of the reagent is attributed to availability of NADH or NADPH. The decline in levels of these metabolically important compounds in the cell causes that the production of formazan is reduced. The tested plate was incubated for 2 h at 37 °C and 5% CO2 and after this time, the absorbance was recorded at 490 nm using a 96-well plate reader (TECAN, Infinite M200, Grödig, Austria).
The results were expressed as inhibitory concentration which is necessary to inhibit cell viability to 50% from the maximal (control) viability (IC50). A standard toxicological parameter IC50 was calculated in each of the tested substances using GraphPad Prism software (version 5.02; GraphPad Software Inc., San Diego, CA, USA).

[3] = tested on: Mycobacterium tuberculosis 331/88 (H37Rv); assay: Antimycobacterial MIC micromethod, Šula's medium; assay type: cell-based; conditions: read-out: MIC Mtb. 331/88
[4] = tested on: Mtb. 53/2009; assay: microbe, parasite or virus in culture; assay type: cell-based; conditions: Mycobacterium tuberculosis, read-out: MIC Mtb. 53/2009
[5] = tested on: Mtb. 9449/2006; assay: microbe, parasite or virus in culture; assay type: cell-based; conditions: Mycobacterium tuberculosis, read-out: MIC Mtb. 9449/2006
[6] = tested on: Mycobacterium avium 330/88; assay: Antimycobacterial MIC micromethod; assay type: cell-based
[7] = tested on: M. kansasii 6509/96 (clinically isolated strain); assay: Antimycobacterial MIC micromethod; assay type: cell-based; conditions: Mycobacterium kansasii, read-out: MIC M. kansasii 6509/96
[8] = tested on: Mycobacterium kansasii 235/80; assay: Antimycobacterial MIC micromethod; assay type: cell-based; conditions: read-out: MIC M. kansasii 235/80
[9] = molecular target: T1, mycobacterial isocitrate lyase (ICL1, Rv0467) (Mycobacterium tuberculosis, UniProt P9WKK7); assay: Isocitrate lyase inhibition assay (ICL1); assay type: biochemical, Mycobacterium tuberculosis H37Rv; conditions: 10 μmol/L; read-out: % ICL inhibition at 10 μmol/L (± standard deviation)
T1 construct: His tag (from pET-28b(+)); made in house; host or cells: E. coli BL21(DE3), pET-28b(+) plasmid
T1 sequence (P9WKK7 1-428): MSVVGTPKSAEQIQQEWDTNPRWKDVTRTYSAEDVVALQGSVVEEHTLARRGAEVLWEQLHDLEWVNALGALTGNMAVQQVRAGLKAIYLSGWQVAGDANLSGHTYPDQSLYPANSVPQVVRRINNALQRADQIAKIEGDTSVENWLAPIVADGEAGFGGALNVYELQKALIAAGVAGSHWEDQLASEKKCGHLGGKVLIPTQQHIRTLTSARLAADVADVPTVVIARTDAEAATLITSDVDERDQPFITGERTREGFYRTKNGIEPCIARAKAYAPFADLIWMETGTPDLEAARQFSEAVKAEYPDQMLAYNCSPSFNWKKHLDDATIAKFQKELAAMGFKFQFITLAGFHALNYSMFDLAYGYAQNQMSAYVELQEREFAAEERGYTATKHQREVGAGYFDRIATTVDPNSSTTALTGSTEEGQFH

[10] = tested on: Mtb. Praha 131 (XDR-TB); assay: microbe, parasite or virus in culture; assay type: cell-based; conditions: Mycobacterium tuberculosis, read-out: MIC Mtb. Praha 131 (XDR-TB)
[11] = tested on: Mtb. 7357/1988; assay: microbe, parasite or virus in culture; assay type: cell-based; conditions: Mycobacterium tuberculosis, read-out: MIC Mtb. 7357/1988
[12] = tested on: Mtb. 234/2005; assay: microbe, parasite or virus in culture; assay type: cell-based; conditions: Mycobacterium tuberculosis, read-out: MIC Mtb. 234/2005

In the case of `O=C(Oc1cc(Cl)ccc1C(=O)Nc1ccc(Cl)c(Cl)c1)c1ccc(C(F)(F)F)cc1` [1f], the MIC ([1]; 336 h) is reported as 1 µM (≈ 0.489 µg/mL), the MIC ([1]; 504 h) is reported as 2 µM (≈ 0.977 µg/mL) and the IC50 [2] is reported as 4.46 µM. It also gave an MIC ([3]; 336 h, 14 d) of 1 µM (≈ 0.489 µg/mL), an MIC ([3]; 504 h, 21 d) of 2 µM (≈ 0.977 µg/mL) and an MIC ([4]; 336 h) of 2 µM (≈ 0.977 µg/mL). The MIC ([4]; 504 h) was 2 µM (≈ 0.977 µg/mL), the MIC ([5]; 336 h) was 2 µM (≈ 0.977 µg/mL) and the MIC ([5]; 504 h) was 2 µM (≈ 0.977 µg/mL). For the same molecule, the MIC ([6]; 330/88, 336 h, 14 d) was 2 µM (≈ 0.977 µg/mL), the MIC ([6]; 330/88, 504 h, 21 d) was 8 µM (≈ 3.91 µg/mL) and the MIC ([7]; 168 h, 7 d) was 1 µM (≈ 0.489 µg/mL). For the same molecule, the MIC ([7]; 336 h, 14 d) was 2 µM (≈ 0.977 µg/mL), the MIC ([7]; 504 h, 21 d) was 4 µM (≈ 1.95 µg/mL) and the MIC ([8]; 235/80, 168 h, 7 d) was 1 µM (≈ 0.489 µg/mL). It also gave an MIC ([8]; 235/80, 336 h, 14 d) of 2 µM (≈ 0.977 µg/mL), an MIC ([8]; 235/80, 504 h, 21 d) of 4 µM (≈ 1.95 µg/mL) and an inhibition at 10 µM [9] of 17 ± 1.6%. The MIC ([10]; 336 h) was 1 µM (≈ 0.489 µg/mL), the MIC ([10]; 504 h) was 2 µM (≈ 0.977 µg/mL) and the MIC ([11]; 336 h) was 2 µM (≈ 0.977 µg/mL). The MIC ([11]; 504 h) was 2 µM (≈ 0.977 µg/mL), the MIC ([12]; 336 h) was 1 µM (≈ 0.489 µg/mL) and the MIC ([12]; 504 h) was 2 µM (≈ 0.977 µg/mL).
In the case of `O=C(Oc1ccc(Cl)cc1C(=O)Nc1cccc(Br)c1)c1ccc(C(F)(F)F)cc1` [1g], the MIC ([1]; 336 h) is reported as 1 µM (≈ 0.499 µg/mL), the MIC ([1]; 504 h) is reported as 2 µM (≈ 0.997 µg/mL) and the IC50 [2] is reported as 2.63 µM. It also gave an MIC ([3]; 336 h, 14 d) of 1 µM (≈ 0.499 µg/mL), an MIC ([3]; 504 h, 21 d) of 2 µM (≈ 0.997 µg/mL) and an MIC ([4]; 336 h) of 2 µM (≈ 0.997 µg/mL). It also gave an MIC ([4]; 504 h) of 2 µM (≈ 0.997 µg/mL), an MIC ([5]; 336 h) of 1 µM (≈ 0.499 µg/mL) and an MIC ([5]; 504 h) of 2 µM (≈ 0.997 µg/mL). It also gave an MIC ([6]; 330/88, 336 h, 14 d) of 2 µM (≈ 0.997 µg/mL), an MIC ([6]; 330/88, 504 h, 21 d) of 8 µM (≈ 3.99 µg/mL) and an MIC ([7]; 168 h, 7 d) of 1 µM (≈ 0.499 µg/mL). It also gave an MIC ([7]; 336 h, 14 d) of 4 µM (≈ 1.99 µg/mL), an MIC ([7]; 504 h, 21 d) of 4 µM (≈ 1.99 µg/mL) and an MIC ([8]; 235/80, 168 h, 7 d) of 2 µM (≈ 0.997 µg/mL). It also gave an MIC ([8]; 235/80, 336 h, 14 d) of 4 µM (≈ 1.99 µg/mL), an MIC ([8]; 235/80, 504 h, 21 d) of 4 µM (≈ 1.99 µg/mL) and an inhibition at 10 µM [9] of at least 20%. It also gave an MIC ([10]; 336 h) of 1 µM (≈ 0.499 µg/mL), an MIC ([10]; 504 h) of 2 µM (≈ 0.997 µg/mL) and an MIC ([11]; 336 h) of 2 µM (≈ 0.997 µg/mL). It also gave an MIC ([11]; 504 h) of 2 µM (≈ 0.997 µg/mL), an MIC ([12]; 336 h) of 1 µM (≈ 0.499 µg/mL) and an MIC ([12]; 504 h) of 2 µM (≈ 0.997 µg/mL).

— paper PMC6270420, “Antibacterial Activity of Salicylanilide 4-(Trifluoromethyl)benzoates” (Molecules, 2013)
